Assay [1] is described as follows: Effects of CNT inhibitor on plasma uric acid level (purine load test in rats). Format: in vivo. Particulars: Male SD-IGS rats, oxonic acid 100 mg/kg s.c., purine mix 50 mg/kg and test compound 50 mg/kg orally, blood after 1 hour; control group = 100%. As for the experimental part: Male SD-IGS rats (5 weeks old) which were fasted overnight, were subcutaneously treated with oxonic acid (Aldrich; 100 mg/kg), and after 1 hour, purine mix (Adenosine: Inosine: Guanosine=1:1:1 (Adenosine (Sigma), Inosine (WAKO), Guanosine (ICN); 50 mg/kg) and test compounds (50 mg/kg) were orally administrated simultaneously. A control group was treated with oxonic acid and the purine mix, and a group administrated only oxonic acid represented endogenous plasma uric acid value. After 1 hour, blood was collected from the abdominal aorta under ether anesthesia, and the plasma was collected with Venoject II vacuum blood collecting tube (Terumo, VP-FH052). According to the method described in Journal of Chromatography B, Vol. 744 (2000), pp. 129-138, plasma uric acid level was measured by using HPLC method mentioned below. The difference between plasmauric acid value in each study group and endogenous plasma uric acid value was calculated on the basis of 100% in the control group.
Theophylline (10 μg) as an internal standard substance was added to 0.1 mL of plasma collected with the above method, and then the samples were deproteinized with 1 mL of methanol. After the samples were centrifuged, the methanol layers were evaporated to dryness under a stream of nitrogen. […] Plasma uric acid concentration was determined by HPLC method according to the condition described below. […]

The next assay has as its target T1, human CNT2 (Homo sapiens, UniProt O43868).
T1 construct: expressed in transfected cells; host or cells: COS-7 cells (RIKEN CELL BANK RCB0539), transient lipofection of a pCI-neo plasmid
T1 sequence (O43868 1-658 P22L/S45C/I160M): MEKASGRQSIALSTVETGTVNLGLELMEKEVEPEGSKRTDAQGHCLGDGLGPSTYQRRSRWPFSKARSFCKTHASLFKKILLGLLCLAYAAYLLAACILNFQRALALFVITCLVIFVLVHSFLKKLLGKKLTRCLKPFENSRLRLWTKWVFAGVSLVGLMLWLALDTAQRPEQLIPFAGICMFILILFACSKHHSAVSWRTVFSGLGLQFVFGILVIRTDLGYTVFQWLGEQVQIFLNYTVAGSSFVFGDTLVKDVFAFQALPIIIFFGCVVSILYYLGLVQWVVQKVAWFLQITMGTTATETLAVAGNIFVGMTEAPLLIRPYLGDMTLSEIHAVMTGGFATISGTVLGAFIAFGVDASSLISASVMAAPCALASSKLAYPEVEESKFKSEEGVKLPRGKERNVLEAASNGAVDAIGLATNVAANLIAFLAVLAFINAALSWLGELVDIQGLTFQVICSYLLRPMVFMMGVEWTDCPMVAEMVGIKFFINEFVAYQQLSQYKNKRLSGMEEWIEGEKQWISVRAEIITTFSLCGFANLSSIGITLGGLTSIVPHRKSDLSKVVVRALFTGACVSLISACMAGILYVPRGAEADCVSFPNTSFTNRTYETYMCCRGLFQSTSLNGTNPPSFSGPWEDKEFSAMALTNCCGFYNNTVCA
Briefly: Inhibitory activity against uptake of adenosine through human CNT2. Particulars: 14C-labeled adenosine 10 μM, COS-7 cells transiently expressing human CNT2, 30 minutes at 37° C. It counts as cell-based. As for the experimental part:
Expression plasmid of human CNT2 was transfected into COS-7 cells (RIKEN CELL BANK RCB0539) by lipofection method. LIPOFECTAMINE 2000 (Invitrogen) was used as a lipofection reagent. COS-7 cells were diluted in D-MEM (Invitrogen) containing 10% fetal calf serum (Sanko Junyaku) at 5×10^5/1 mL, and seeded into collagen-coated 96-well plates (IWAKI) at 100 μL/well and cultured at 37° C. for 2 hours with 5% CO2 condition. For each well, 0.6 μL of LIPOFECTAMINE 2000 (Invitrogen) was diluted in 25 μL of OPTI-MEM (Invitrogen), and incubated for 7 minutes at room temperature (hereinafter referred to as Lipo 2000-OPTI). […]
An Uptake buffer was prepared by addition of a mixture of non-radioisotope labeled (Sigma) and ^14C-labeled (Amersham Biosciences) adenosine at the final concentration of 10 μM into a buffer, pH 7.4, containing 140 mM sodium chloride, 2 mM potassium chloride, 1 mM calcium chloride, 1 mM magnesium chloride, 10 mM HEPES 2-[4-(2-hydroxyethyl)-1-piperazinyl]ethane sulfonic acid, 5 mM tris(hydroxy-methyl)aminomethane and 5 mM glucose. […] After mixing with 150 μL of MicroScint-40 (Perkin Elmer), radioactivity was measured by means of scintillation counter (Perkin Elmer). One hundred % was set to the difference between the uptake in the control group and the basal uptake, and the uptake of adenosine at each test compound concentration was calculated. […]

Broadly, the IC50 is the concentration that gives 50% inhibition. Take `Nc1ncnc2c1nc(NCc1ccc(-c3ccccc3)c(OCCCCO)c1)n2[C@@H]1O[C@H](CO)[C@@H](O)[C@H]1O` [Example 82]: the “Percentage of increment of plasma uric acid level (%)” value in assay [1] is reported as 44.1 (p < 0.05) %. Further, half-maximal inhibition on human CNT2 (IC50) was put at 297 nM.

Source of the values: US7795236B2, “Purine nucleoside derivative modified in 8-position and medical use thereof” (Kissei Pharmaceutical Co., Ltd., priority 2005, dated 2010).
